Columns and labels:
[1] = target: peripheral benzodiazepine receptor (PBR) (Homo sapiens, UniProt P30536); details: background art, Patent Documents 1 and 2; cited from earlier work
intracerebral PBR = target: T1, intracerebral PBR (Homo sapiens, UniProt P30536); details: 11C-labeled ligand, PET, living human brain; cited from earlier work
T1 construct: In imaging the intracerebral PBR distribution of a living human brain with positron emission tomograph (PET); host or cells: living human brain (PET)

[2] = target: T2, peripheral benzodiazepine receptors (Rattus norvegicus, UniProt P16257); test: Ex vivo autoradiography of rat brain; assay type: in vivo
T2 construct: from tissue
Method: FIGS. 1 and 2 show cerebral ex vivo autoradiograms taken in 30 minutes after [^131I]2IDAA1106 was administered to a rat. […] In particular, radioactivity levels in the olfactory bulb, choroid plexus and cerebellum decreased remarkably and were equal to or less than 20% of FIG. 1.

[3] = rat, brain 30 minutes after administration, FIG. 1

Chain of peripheral benzodiazepine receptor (PBR) (P30536 whole entry, species assumed): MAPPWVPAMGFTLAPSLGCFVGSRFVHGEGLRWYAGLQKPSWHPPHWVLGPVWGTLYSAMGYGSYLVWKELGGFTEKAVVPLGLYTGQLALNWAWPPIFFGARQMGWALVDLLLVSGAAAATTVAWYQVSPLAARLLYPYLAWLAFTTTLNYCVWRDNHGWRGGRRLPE
T1 sequence (P30536 whole entry): as the sequence (P30536 whole entry, species assumed) above

Structure (SMILES) | affinity as PBR ligand [1] | selectivity as PBR ligand [1] | other results
COc1ccc(OC)c(CN(C(C)=O)c2cc(F)ccc2Oc2ccccc2)c1 [DAA1106, N-(2,5-dimethoxybenzyl)-N-(5-fluoro-2-phenoxyphenyl)acetamide] | strong affinity | high selectivity | 
COc1ccc(OCCF)c(CN(C(C)=O)c2cc(F)ccc2Oc2ccccc2)c1 [FEDAA1106, N-[2-(2-fluoro)ethyl-5-methoxybenzyl]-N-(5-fluoro-2-phenoxyphenyl)acetamide] | strong affinity | high selectivity | 
COc1ccc(CF)c(CN(C(C)=O)c2cc(F)ccc2Oc2ccccc2)c1 [FMDAA1106, N-(2-fluoromethyl-5-methoxybenzyl)-N-(5-fluoro-2-phenoxyphenyl)acetamide] | strong affinity | high selectivity | 
CCC(C)N(C)C(=O)c1cc2ccccc2c(-c2ccccc2Cl)n1 (stereo not drawn) [PK 11195, N-methyl-N-(1-methylpropyl)-1-(2-chlorophenyl)-isoquinoline-3-carboxamide] |  |  | accumulation in the brain (intracerebral PBR): extremely low accumulation in the brain
COc1ccc([131I])c(CN(C(C)=O)c2cc(F)ccc2Oc2ccccc2)c1 [[^131I]2IDAA1106, N-(2-[^131I]iodo-5-methoxybenzyl)-N-(5-fluoro-2-phenoxyphenyl)acetamide] |  |  | specificity as radioligand ([2]; conclusion from distribution profile and DAA1106 blocking): specific to peripheral benzodiazepine receptors; radioactivity levels in the olfactory bulb, choroid plexus and cerebellum relative to FIG. 1 ([2]; rat, 30 minutes, co-administration of DAA1106, FIG. 2 as % of FIG. 1): ≤ 20%; radioactivity distribution in the whole brain when DAA1106 administered at the same time ([2]; rat, 30 minutes, co-administration of DAA1106, FIG. 2 versus FIG. 1): decreased in the whole brain; brain permeability characteristics [2, 3]: relatively high brain permeability characteristics; radioactivity distribution at the olfactory bulb, choroid plexus and cerebellum [2, 3]: relatively high radioactivity distribution
